# According to ChEMBL document CHEMBL1201862, “PubChem BioAssay data set” (2004):
# The source made the active and inactive calls.
# How the values were obtained:
# Vero [1] = experiment: cells; format: functional, cell-based; settings: Chlorocebus sabaeus
# [2] = target: T1, Replicative DNA helicase DnaB (Mycobacterium tuberculosis, UniProt P9WMR3); experiment: DnaB intein splicing inhibitors, dose response, biochemical, cell-free fluorescence (AID 449749); format: functional
# T1 sequence (P9WMR3 whole entry): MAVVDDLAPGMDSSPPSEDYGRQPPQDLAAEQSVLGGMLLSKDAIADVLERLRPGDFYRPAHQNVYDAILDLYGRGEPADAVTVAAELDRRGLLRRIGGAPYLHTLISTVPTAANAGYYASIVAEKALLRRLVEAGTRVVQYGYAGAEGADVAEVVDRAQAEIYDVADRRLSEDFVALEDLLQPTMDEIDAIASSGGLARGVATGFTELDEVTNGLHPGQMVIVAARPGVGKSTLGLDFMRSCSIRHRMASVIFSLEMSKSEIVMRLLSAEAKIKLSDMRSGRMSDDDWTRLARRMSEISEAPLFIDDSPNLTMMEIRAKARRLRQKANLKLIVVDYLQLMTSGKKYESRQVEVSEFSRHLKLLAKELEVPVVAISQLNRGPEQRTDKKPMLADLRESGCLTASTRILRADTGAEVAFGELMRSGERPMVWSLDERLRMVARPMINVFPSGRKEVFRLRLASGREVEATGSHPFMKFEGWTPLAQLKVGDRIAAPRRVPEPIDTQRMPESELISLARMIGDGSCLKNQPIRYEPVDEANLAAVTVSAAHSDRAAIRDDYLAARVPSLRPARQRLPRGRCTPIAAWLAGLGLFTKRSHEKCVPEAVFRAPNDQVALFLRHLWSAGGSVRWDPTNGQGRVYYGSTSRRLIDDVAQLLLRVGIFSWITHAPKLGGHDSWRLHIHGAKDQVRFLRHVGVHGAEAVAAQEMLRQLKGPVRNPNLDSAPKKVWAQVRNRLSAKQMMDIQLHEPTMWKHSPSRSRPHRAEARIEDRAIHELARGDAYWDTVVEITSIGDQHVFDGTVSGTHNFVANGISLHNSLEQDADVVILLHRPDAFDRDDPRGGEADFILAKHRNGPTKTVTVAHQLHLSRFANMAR
# [3] = Luminescence Cell-Based Dose Retest to Confirm Inhibitors of Cancer Stem Cells. [Related pubchem assays (depositor defined):AID2717, AID2721]; format: functional; settings: Homo sapiens
# Vero [4] = experiment: cells; format: functional; settings: Chlorocebus sabaeus
# Protein RecA = target: T2, Protein RecA (Mycobacterium tuberculosis, UniProt P9WHJ3); experiment: Fluorescence Cell-Free Homogeneous Dose Retest to Identify Inhibitors of RecA-Intein Splicing Activity. [Related pubchem assays (depositor defined):AID2097, AID2223, AID489010, AID492950]; format: functional
# T2 sequence (P9WHJ3 whole entry): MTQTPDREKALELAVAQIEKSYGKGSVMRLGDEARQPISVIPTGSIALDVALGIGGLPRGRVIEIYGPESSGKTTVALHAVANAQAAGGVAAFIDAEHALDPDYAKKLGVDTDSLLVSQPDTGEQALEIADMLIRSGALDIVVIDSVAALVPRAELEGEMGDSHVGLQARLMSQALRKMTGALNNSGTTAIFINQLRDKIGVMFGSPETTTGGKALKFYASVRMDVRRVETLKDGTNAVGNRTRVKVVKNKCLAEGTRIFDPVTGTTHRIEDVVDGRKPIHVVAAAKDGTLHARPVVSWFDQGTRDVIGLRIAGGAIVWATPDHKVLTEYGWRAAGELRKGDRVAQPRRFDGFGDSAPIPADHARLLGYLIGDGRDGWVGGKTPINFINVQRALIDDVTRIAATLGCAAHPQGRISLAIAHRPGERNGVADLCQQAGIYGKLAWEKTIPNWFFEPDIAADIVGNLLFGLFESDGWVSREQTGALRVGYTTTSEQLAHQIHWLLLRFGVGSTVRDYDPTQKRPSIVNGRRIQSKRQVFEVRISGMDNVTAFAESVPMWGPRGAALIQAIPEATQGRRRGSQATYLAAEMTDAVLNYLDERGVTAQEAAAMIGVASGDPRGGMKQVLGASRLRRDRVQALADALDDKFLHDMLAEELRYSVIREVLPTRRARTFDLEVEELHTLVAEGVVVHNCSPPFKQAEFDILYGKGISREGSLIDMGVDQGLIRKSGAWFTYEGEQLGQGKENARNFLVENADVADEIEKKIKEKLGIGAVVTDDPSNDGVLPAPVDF
# [5] = target: T3, Mitochondrial peptide methionine sulfoxide reductase (Bos taurus, UniProt P54149); experiment: Absorbance-based biochemical high throughput dose response assay for activators of Methionine sulfoxide reductase A (MsrA).; format: functional
# T3 sequence (P54149 whole entry): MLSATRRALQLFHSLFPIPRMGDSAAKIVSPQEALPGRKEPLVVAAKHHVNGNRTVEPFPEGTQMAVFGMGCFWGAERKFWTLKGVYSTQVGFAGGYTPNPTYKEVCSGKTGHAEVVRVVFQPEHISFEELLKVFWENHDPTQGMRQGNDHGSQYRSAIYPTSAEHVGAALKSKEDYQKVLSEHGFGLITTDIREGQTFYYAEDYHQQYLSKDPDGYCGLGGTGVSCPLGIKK
# [6] = A549 cell cytotoxicity, dose response, cytotoxicity control, plate reader, cherry-pick, antagonist series (AID 743412); format: functional, cell-based
# [7] = fluconazole-exposed Candida albicans growth modulators – fluorescence, retest, confirmation (AID 2467); format: functional, cell-based
# BJ [8] = experiment: cells; format: functional, cell-based; settings: Homo sapiens
# [9] = non-specific 3'UTR reporter inhibition in Clone20-Shn3RL – cell-based, Renilla luciferase, cherry-picked, counter-screen for Shn3 inhibitor project, dose response (AID 624133); format: functional
# BJ [10] = experiment: growth inhibition of engineered Ras-driven BJ cells – cell-based, alamar blue fluorescence, cherrypicked samples, dose response (AID 2631); format: functional; settings: Homo sapiens;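 note: confirmatory dose-response assay in RAS-dependent BJ fibroblasts engineered with TERT, LT and ST, with cytotoxicity read by fluorescence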
# [11] = viability loss in HEK293 cells – cell-based, plate reader, cherry-picked samples, cytotoxicity control, dose response (AID 743446); format: functional
# [12] = toxicity toward HepG2 liver cells – cell-based, plate reader, cherry-pick, antagonist series, cytotoxicity control, dose response (AID 743416); format: functional
# [13] = reduction of Shn3 3'UTR-driven luciferase in osteoblasts – cell-based, Clone20 osteoblasts, firefly luciferase, cherry-picked, dose response (AID 624132); format: functional;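 note: firefly luciferase luminescence from reporter carrying the Shn3 3'UTR in osteoblasts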
# [14] = NIH-3T3 fibroblast cytotoxicity, dose response, cytotoxicity control, cell-based, fluorescence, Alamar Blue, secondary assay (AID 2327); format: functional;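 note: NIH-3T3 mouse fibroblasts cultured with fluconazole at 8 µg/mL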
# [15] = target: T4, Microphthalmia-associated transcription factor (Homo sapiens, UniProt O75030); experiment: reducers of TRPM1 reporter luminescence, concentration series – cell-based, SK-MEL-5, cherry-picked, set 3, MITF inhibitor project, dose response (AID 493073); format: functional;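 note: SK-MEL-5 melanoma cells with luciferase driven by the MITF target TRPM1 promoter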
# T4 sequence (O75030 whole entry): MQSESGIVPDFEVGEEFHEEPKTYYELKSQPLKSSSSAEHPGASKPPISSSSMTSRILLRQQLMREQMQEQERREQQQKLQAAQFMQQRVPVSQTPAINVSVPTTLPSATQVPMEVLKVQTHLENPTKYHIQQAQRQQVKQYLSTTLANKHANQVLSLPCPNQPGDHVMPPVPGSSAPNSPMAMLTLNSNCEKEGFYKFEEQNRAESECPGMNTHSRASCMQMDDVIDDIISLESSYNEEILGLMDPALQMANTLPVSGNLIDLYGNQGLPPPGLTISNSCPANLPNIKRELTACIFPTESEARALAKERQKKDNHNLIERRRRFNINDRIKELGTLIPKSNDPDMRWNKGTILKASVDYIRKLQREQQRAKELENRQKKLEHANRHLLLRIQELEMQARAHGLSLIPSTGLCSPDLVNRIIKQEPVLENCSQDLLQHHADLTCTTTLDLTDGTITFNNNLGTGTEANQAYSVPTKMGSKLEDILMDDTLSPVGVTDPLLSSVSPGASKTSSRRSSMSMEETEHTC
# [16] = DRD fibroblast viability loss – cell-based, non-viral oncogenic, luminescence, dose response (AID 1934); format: functional; settings: Homo sapiens
# [17] = HEK-293T viability loss after treatment – luminescence, T-cell screen hits, cytotoxicity control for TCR NF-kB inhibitor project, dose response (AID 489026); format: functional, cell-based;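 note: cells exposed to compound about 14 hours before the viability readout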
# BJ [18] = experiment: BJ-TERT-LT-ST fibroblast viability loss – cell-based, RAS-independent, luminescence, dose response (AID 1935); format: functional; settings: Homo sapiens;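 note: BJ fibroblasts immortalized with TERT plus LT and ST oncogenes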
# [19] = loss of viability in HepG2 cells – cell-based, CellTiter-Glo, cherry-picked, cytotoxicity control for Shn3 inhibitor project, dose response (AID 624134); format: functional
# BJ [20] = experiment: BJ-TERT fibroblast viability loss – cell-based, RAS-independent, luminescence, dose response (AID 1933); format: functional; settings: Homo sapiens
# [21] = blockers of bursicon-stimulated LGR2 cAMP reporter – cell-based, HEK293, CRE-luciferase reporter, cherry pick, set 2, dose response (AID 743343); format: functional;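 note: transfected cells were stimulated with diluted bursicon conditioned medium after compound addition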
# Jurkat = experiment: blockers of NF-kB activation in T cells – Jurkat, luciferase reporter, luminescence, B- and T-cell, dose response (AID 489004); format: functional, cell-based; settings: Homo sapiens;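 note: NF-kB luciferase reporter Jurkat cells stimulated with PMA plus ionomycin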
# [22] = blockade of melanocortin 4 receptor signaling – cell-based, plate reader, cherry pick, counter-screen for LGR2 antagonist project, dose response (AID 743444); format: functional;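 note: transfected HEK 293 cells stimulated with alpha-MSH peptide; potency of inhibitors of the alpha-MSH evoked signal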
# [23] = HIV-1 AD8 envelope cell-cell fusion blockers – cherry-pick, dose response (AID 652062); format: functional, cell-based;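 note: luciferase signal from cell-cell fusion driven by HIV-1 clade B AD8 Env; potency is for inhibitors of fusion seen as a drop in luminescence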
# [24] = target: Luciferin 4-monooxygenase (Photinus pyralis, UniProt P08659); experiment: inhibition of purified Photinus pyralis luciferase – biochemical, luminescence, dose response (AID 1891)
# Sequence of Luciferin 4-monooxygenase (P08659 whole entry, the tested form may be a part): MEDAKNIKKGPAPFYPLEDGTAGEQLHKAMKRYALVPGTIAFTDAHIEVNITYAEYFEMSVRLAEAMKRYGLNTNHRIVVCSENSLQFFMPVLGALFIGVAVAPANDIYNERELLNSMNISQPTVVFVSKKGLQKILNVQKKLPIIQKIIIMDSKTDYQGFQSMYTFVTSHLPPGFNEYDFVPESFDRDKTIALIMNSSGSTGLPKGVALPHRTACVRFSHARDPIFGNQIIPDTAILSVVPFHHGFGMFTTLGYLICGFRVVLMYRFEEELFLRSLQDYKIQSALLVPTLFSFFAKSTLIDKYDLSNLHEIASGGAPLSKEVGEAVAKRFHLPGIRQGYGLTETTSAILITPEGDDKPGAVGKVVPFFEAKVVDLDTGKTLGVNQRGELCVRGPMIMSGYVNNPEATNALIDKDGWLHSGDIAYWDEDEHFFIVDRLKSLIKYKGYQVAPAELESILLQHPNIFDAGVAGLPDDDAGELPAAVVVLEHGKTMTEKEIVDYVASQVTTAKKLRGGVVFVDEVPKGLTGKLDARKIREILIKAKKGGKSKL
# [25] = blockers of HIV-1 ZM109 envelope-driven cell-cell fusion – HeLa effector, CEM target cells, luciferase, cherry-pick, dose response (AID 652058); format: functional, cell-based;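 note: luciferase signal from HIV-1 Env mediated cell-cell fusion of effector and target cells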
# [26] = off-target signal loss in HeLa-CEM21 co-culture – HeLa F-luc CTL cells, cherry-picked, counter-screen for HIV-1 Env fusion inhibitor project, dose response (AID 652040); format: functional, cell-based;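 note: potency for signal decrease marking cytotoxic or nonspecific inhibition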
# [27] = viability loss in CEM21 cells – cell-based, CellTiter-Glo luminescence, cherry-picked, cytotoxicity control for viral fusion inhibitor project, dose response (AID 652042); format: functional;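 note: potency for signal decrease meaning cytotoxicity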
# [28] = blockers of HIV-1 envelope-mediated cell-cell fusion – cherry-pick, dose response (AID 652057); format: functional, cell-based
# [29] = HEK-293T viability loss, compound-treated – cell-based, uHTS hits, cytotoxicity control for B/T-cell NF-kB inhibitor project, dose response (AID 489019); format: functional;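 note: IC50 reflects cytotoxicity as loss of cell viability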
# [30] = Luminescence Cell-Based Dose Confirmation HTS to Identify Inhibitors of Platelet Dense Granule Release. [Related pubchem assays: 1663 (Primary HTS), 1678 (Summary of Project)]; format: functional
# Melanocortin receptor 4 = Melanocortin receptor 4 (Homo sapiens, UniProt P32245); format: functional, cell-based;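 note: Cell-based assay with luminescence read-out, confirmatory dose-response testing for agonist activity of biased ligands at MC4R; human U2OS cells with tagged receptor and beta-arrestin; potency of agonists that increase receptor coupling to beta-arrestin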
# Sequence of Melanocortin receptor 4 (P32245 whole entry): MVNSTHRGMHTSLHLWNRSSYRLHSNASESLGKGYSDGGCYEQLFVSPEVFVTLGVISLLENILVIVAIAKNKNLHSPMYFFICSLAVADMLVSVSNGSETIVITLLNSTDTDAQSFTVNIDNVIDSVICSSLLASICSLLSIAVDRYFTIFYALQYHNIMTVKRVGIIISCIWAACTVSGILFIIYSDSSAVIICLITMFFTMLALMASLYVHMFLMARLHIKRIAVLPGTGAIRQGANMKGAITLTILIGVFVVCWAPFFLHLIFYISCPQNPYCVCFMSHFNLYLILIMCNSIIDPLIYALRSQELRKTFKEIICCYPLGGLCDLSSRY
# H9c2 = experiment: cells; format: functional, cell-based; settings: Rattus norvegicus, H9c2, Myocardium;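 note: confirmatory concentration-response retest of ultra-high-throughput screening hits for modulation of myocardial damage; cell death induced by hydrogen peroxide oxidative stress; compound pretreatment for 60 min then peroxide exposure for 2 h; potency is for protecting the cells against peroxide damage rather than for killing them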
smiles,measurement,setting,value
C=CCSC(=C(C#N)C#N)c1cc2c([nH]1)CCCC2,IC50,Vero [1],> 25 µM (active)
same,AC50,[2],> 380 µM (inactive)
same,AC50,[3],6.73 µM (active)
same,CC50,Vero [4],10.5 µM (active)
same,EC50,Protein RecA,6.29 µM (active)
Cc1cc(S)nc(S)n1,EC50,[5],> 104 µM (inactive)
O=c1c2ccccc2nc(/C=C/c2ccc([N+](=O)[O-])o2)n1-c1ccc(O)cc1,AC50,[6],4.35 µM (active)
same,EC50,[7],0.165 µM (active)
same,EC50,BJ [8],3.48 µM (inconclusive)
same,AC50,[9],4.9 µM (active)
same,EC50,BJ [10],7.06 µM (active)
same,AC50,[11],4.16 µM (active)
same,AC50,[12],4.17 µM (active)
same,AC50,[13],3.24 µM (active)
same,EC50,[14],3.91 µM (inconclusive)
same,AC50,[15],4.45 µM (active)
same,EC50,[16],2.97 µM (active)
same,IC50,[17],> 80 µM (inactive)
same,EC50,BJ [18],3.08 µM (inconclusive)
same,AC50,[19],5.99 µM (active)
same,EC50,BJ [20],4.33 µM (active)
NS(=O)(=O)c1ccc(NC(=O)c2cc(-c3cccs3)nc3ccccc23)cc1,EC50,BJ [8],83.1 µM (active)
same,EC50,BJ [10],> 133 µM (inactive)
same,EC50,[16],10.8 µM (active)
same,EC50,BJ [18],> 75 µM (inconclusive)
same,EC50,BJ [20],14.1 µM (active)
COc1ccc(-c2cc3nc(C)n(N)c(=O)c3s2)cc1,AC50,[21],0.26 µM (active)
same,IC50,Jurkat,0.47 µM (active)
same,AC50,[6],3.1 µM (active)
same,AC50,[22],0.289 µM (active)
same,EC50,BJ [8],2.27 µM (active)
same,AC50,[23],1.51 µM (active)
same,EC50,BJ [10],> 133 µM (inactive)
same,EC50,[24],0.263 µM (active)
same,AC50,[11],3.01 µM (active)
same,AC50,[25],8.99 µM (active)
same,AC50,[12],3.72 µM (active)
same,AC50,[13],1.13 µM (active)
same,AC50,[26],2.33 µM (active)
same,EC50,[16],2.15 µM (active)
same,EC50,BJ [18],10.6 µM (active)
same,AC50,[27],4.71 µM (active)
same,AC50,[28],0.95 µM (active)
same,IC50,[29],> 80 µM (inactive)
same,AC50,[19],4.71 µM (active)
same,EC50,[30],0.443 µM (active)
same,EC50,BJ [20],3.64 µM (inconclusive)
Cc1nc2c(nc1C)C(=O)c1ccccc1C2=O,EC50,[5],95.6 µM (inactive)
COc1cccc(-c2cnc3c(NC=O)cc(-c4cccc(C(=O)N(C)C)c4)cn23)c1,EC50,Melanocortin receptor 4,> 89.2 µM (inactive)
same,IC50,H9c2,> 79 µM (inactive)
COc1cccc(-c2cnc3c(NC(C)=O)cc(-c4cc(F)ccc4OC)cn23)c1,EC50,Melanocortin receptor 4,> 89.2 µM (inactive)
COc1ccccc1-c1cc(NC=O)c2ncc(-c3ccc(F)cc3)n2c1,EC50,Melanocortin receptor 4,> 9.91 µM (active)
